Laboratory results as given in patent publication US9220268B2, “Herbicidal benzoxazinones” (BASF SE, priority 2009, dated 2015).

Columns and labels:
ALOMY [1] = experiment: greenhouse experiment, post-emergence, mixtures (Example 2, Colby); type: in vivo, Alopercurus myosuroides
Experimental: (§1) The culture containers used were plastic pots containing loamy sand with approximately 3.0% of humus as substrate. The seeds of the test plants were sown separately for each species.
(§2) For the post-emergence treatment, the test plants were grown to a plant height of from 3 to 15 cm, depending on the plant habit, and only then treated with the active compounds which had been suspended or emulsified in water. To this end, the test plants were either sown directly and grown in the same containers, or they were first grown separately as seedlings and transplanted into the test containers a few days prior to treatment.
(§3) Depending on the species, the plants were kept at 10-25° C. and 20-35° C., respectively. […] During this time, the plants were tended and their response to the individual treatments was evaluated. […]
(§4) The test period extended over 20 and 21 days, respectively. During this time, the plants were tended, and their reaction to the treatment with active compound was monitored.
(§5) In the examples below, using the method of S. R. Colby (1967) “Calculating synergistic and antagonistic responses of herbicide combinations”, Weeds 15, p. 22ff., the value E, which is expected if the activity of the individual active compounds is only additive, was calculated. […]
(§6) If the value found experimentally is higher than the value E calculated according to Colby, a synergistic effect is present.

BRAPL [2] = experiment: as above; type: in vivo, Brachiaria plantaginea
Experimental: as §1, §2
(§7) Depending on the species, the plants were kept at 10-25° C. and 20-35° C., respectively. The test period extended over 2 to 4 weeks. During this time, the plants were tended and their response to the individual treatments was evaluated.
(§8) Evaluation was carried out using a scale from 0 to 100. 100 means no emergence of the plants, or complete destruction of at least the above-ground parts, and 0 means no damage or normal course of growth. Good herbicidal activity is given at values of at least 70, and very good herbicidal activity is given at values of at least 85.
(§9) The respective stated components A and B, and if appropriate, C were formulated as a 10% by weight strength emulsion concentrate and, with addition of the amount of solvent system, introduced into the spray liquor used for applying the active compound. In the examples, the solvent used was water.
as §4, §5, §6

ECHCG [3] = experiment: as above; type: in vivo, Echinocloa crus-galli
Experimental: as §1, §2, §3, §4, §5, §6

BRAPL [4] = experiment: greenhouse experiment, post-emergence treatment (Use Examples); type: in vivo, Brachiaria plantaginea; details: post-emergence method; application rate 0.025 kg/ha; scale 0 to 100
Source text: (§10) The culture containers used were plastic flowerpots containing loamy sand with approximately 3.0% of humus as the substrate. The seeds of the test plants were sown separately for each species.
(§11) For the post-emergence treatment, the test plants were first grown to a height of 3 to 15 cm, depending on the plant habit, and only then treated with the active ingredients which had been suspended or emulsified in water. For this purpose, the test plants were either sown directly and grown in the same containers, or they were first grown separately as seedlings and transplanted into the test containers a few days prior to treatment.
(§12) Depending on the species, the plants were kept at 10-25° C. or 20-35° C. The test period extended over 2 to 4 weeks. During this time, the plants were tended, and their response to the individual treatments was evaluated.
(§13) Evaluation was carried out using a scale from 0 to 100. 100 means no emergence of the plants, or complete destruction of at least the aerial moieties, and 0 means no damage, or normal course of growth. A good herbicidal activity is given at values of at least 70 and a very good herbicidal activity is given at values of at least 85.

SETFA [5] = experiment: greenhouse experiment, post-emergence, mixtures (Example 2, Colby); type: in vivo, Setaria faberi
Experimental: as §1, §2, §3, §4, §5, §6

SETFA [6] = experiment: greenhouse experiment, post-emergence treatment (Use Examples); type: in vivo, Setaria faberi; details: post-emergence method; application rate 0.025 kg/ha; scale 0 to 100
Source text: as §10, §11, §12, §13

SETVI = experiment: greenhouse experiment, pre-emergence, mixtures (Example 2, Colby); type: in vivo, Setaria viridis
Source text: as §1
(§14) For the pre-emergence treatment, the active compounds, suspended or emulsified in water, were applied directly after sowing by means of finely distributing nozzles. The containers were irrigated gently to promote germination and growth and subsequently covered with transparent plastic hoods until the plants had rooted. This cover caused uniform germination of the test plants unless this was adversely affected by the active compounds.
as §3, §4, §5, §6

ERBVI [7] = experiment: greenhouse experiment, post-emergence, mixtures (Example 2, Colby); type: in vivo, Eriochloa villosa
Experimental: as §1, §2, §3, §4, §5, §6

POLCO = experiment: greenhouse experiment, pre-emergence, mixtures (Example 2, Colby); type: in vivo, Polygonum convolvulus
Source text: as §1, §14, §3, §4, §5, §6

ERBVI [8] = experiment: as above; type: in vivo, Eriochloa villosa
Source text: as §1, §14, §3, §4, §5, §6

AMBEL [9] = experiment: greenhouse experiment, pre-emergence treatment (Use Examples); type: in vivo, Ambrosia elatior; details: pre-emergence method; application rate 0.050 kg/ha; scale 0 to 100
Source text: as §10
For the pre-emergence treatment, the active ingredients, which had been suspended or emulsified in water, were applied directly after sowing by means of finely distributing nozzles. The containers were irrigated gently to promote germination and growth and subsequently covered with transparent plastic hoods until the plants had rooted. This cover caused uniform germination of the test plants, unless this has been impaired by the active ingredients.
as §12, §13

AMARE = experiment: greenhouse experiment, pre-emergence, mixtures (Example 2, Colby); type: in vivo, Amaranthus retroflexus
Source text: as §1, §14, §7, §8, §9, §4, §5, §6

ECHCG [10] = experiment: as above; type: in vivo, Echinocloa crus-galli
Source text: as §1, §14, §3, §4, §5, §6

ALOMY [11] = experiment: as above; type: in vivo, Alopercurus myosuroides
Source text: as §1, §14, §3, §4, §5, §6

AMBEL [12] = experiment: as above; type: in vivo, Ambrosia artemisiifolia
Source text: as §1, §14, §7, §8, §9, §4
(§15) In the examples below, using the method of S. R. Colby (1967) “Calculating synergistic and antagonistic responses of herbicide combinations”, Weeds 15, p. 22ff., the value E, which is expected if the activity of the individual active compounds is only additive, was calculated. E=X+Y−(X·Y/100) • where • X=percent activity using active compound A at an application rate a; • Y=percent activity using active compound B at an application rate b; • E=expected activity (in %) by A+B at application rates a+b.
as §6

CHEAL = experiment: as above; type: in vivo, Chenopodium album
Source text: as §1, §14, §7, §8, §9, §4, §15, §6

BRAPL [13] = experiment: as above; type: in vivo, Brachiaria plantaginea
Source text: as §1, §14, §3, §4, §5, §6

SORHA = experiment: as above; type: in vivo, Sorghum halepense
Source text: as §1, §14, §3, §4, §5, §6

ELEIN = experiment: as above; type: in vivo, Eleusine indica
Source text: as §1, §14, §3, §4, §5, §6

SORPHA = experiment: greenhouse experiment, post-emergence, mixtures (Example 2, Colby); type: in vivo, Sorghum halepense
Experimental: as §1, §2, §3, §4, §5, §6

BIDPI = experiment: greenhouse experiment, pre-emergence, mixtures (Example 2, Colby); type: in vivo, Bidens pilosa
Source text: as §1, §14, §3, §4, §5, §6

O=C(O)CNCP(=O)(O)O [B.95, glyphosate, reference compound]
herbicidal activity against ALOMY found (ALOMY [1]; B.95 135 g/ha a.s.): 80% | herbicidal activity against BRAPL found (BRAPL [2]; B.95 135 g/ha a.s.): 95% | herbicidal activity against ECHCG found (ECHCG [3]; B.95 135 g/ha a.s.): 85%

C#CCN1C(=O)C(F)(F)Oc2cc(F)c(-n3c(=O)n(C)c(=S)n(C)c3=O)cc21 [I.a.35, 1,5-dimethyl-6-thioxo-3-(2,2,7-trifluoro-3-oxo-4-(prop-2-ynyl)-3,4-dihydro-2H-benzo [b][1,4]oxazin-6-yl)-1,3,5-triazinane-2,4-dione]
herbicidal activity against ALOMY found (ALOMY [1]; I.a.35 12.5 g/ha a.s.): 30% | herbicidal activity against BRAPL found (BRAPL [2]; I.a.35 12.5 g/ha a.s.): 65% | herbicidal activity against BRAPL (BRAPL [4]): very good (a very good herbicidal activity is given at values of at least 85) | herbicidal activity against SETFA found (SETFA [5]; I.a.35 12.5 g/ha a.s.): 75% | herbicidal activity against SETFA (SETFA [6]): very good (a very good herbicidal activity is given at values of at least 85) | herbicidal activity against SETVI found (SETVI; I.a.35 12.5 g/ha a.s.): 90% | herbicidal activity against ERBVI found (ERBVI [7]; I.a.35 12.5 g/ha a.s.): 70% | herbicidal activity against POLCO found (POLCO; I.a.35 25 g/ha a.s.): 65% | herbicidal activity against ERBVI found (ERBVI [8]; I.a.35 25 g/ha a.s.): 55% | herbicidal activity against AMBEL (AMBEL [9]): very good (a very good herbicidal activity is given at values of at least 85) | herbicidal activity against ECHCG found (ECHCG [3]; I.a.35 12.5 g/ha a.s.): 75% | herbicidal activity against AMARE found (AMARE; I.a.35 3.12 g/ha a.s.): 70% | herbicidal activity against ECHCG found (ECHCG [10]; I.a.35 12.5 g/ha a.s.): 30% | herbicidal activity against ALOMY found (ALOMY [11]; I.a.35 25 g/ha a.s.): 65% | herbicidal activity against AMBEL found (AMBEL [12]; I.a.35 12.5 g/ha a.s.): 60% | herbicidal activity against AMBEL found (AMBEL [12]; I.a.35 25 g/ha a.s.): 75% | herbicidal activity against CHEAL found (CHEAL; I.a.35 3.12 g/ha a.s.): 85% | herbicidal activity against CHEAL found (CHEAL; I.a.35 6.25 g/ha a.s.): 85% | herbicidal activity against BRAPL found (BRAPL [13]; I.a.35 25 g/ha a.s.): 50% | herbicidal activity against SORHA found (SORHA; I.a.35 12.5 g/ha a.s.): 60% | herbicidal activity against ELEIN found (ELEIN; I.a.35 12.5 g/ha a.s.): 45% | herbicidal activity against SORPHA found (SORPHA; I.a.35 12.5 g/ha a.s.): 80% | herbicidal activity against BIDPI found (BIDPI; I.a.35 12.5 g/ha a.s.): 30%

Cn1nc(C(F)(F)F)c(CS(=O)(=O)C2=NOC(C)(C)C2)c1OC(F)F [B.116, pyroxasulfone, reference compound]
herbicidal activity against ERBVI found (ERBVI [8]; B.116 6.25 g/ha a.s.): 45% | herbicidal activity against AMBEL found (AMBEL [12]; B.116 6.25 g/ha a.s.): 0% | herbicidal activity against BRAPL found (BRAPL [13]; B.116 6.25 g/ha a.s.): 30%

CCC(CC)Nc1c([N+](=O)[O-])cc(C)c(C)c1[N+](=O)[O-] [B.101, pendimethalin, reference compound]
herbicidal activity against POLCO found (POLCO; B.101 400 g/ha a.s.): 40% | herbicidal activity against ALOMY found (ALOMY [11]; B.101 400 g/ha a.s.): 75%

CC(C)N(C)S(=O)(=O)NC(=O)c1cc(-n2c(=O)cc(C(F)(F)F)n(C)c2=O)c(F)cc1Cl [B.76, saflufenacil, reference compound]
herbicidal activity against BRAPL found (BRAPL [2]; B.76 12.5 g/ha a.s.): 30% | herbicidal activity against SETFA found (SETFA [5]; B.76 12.5 g/ha a.s.): 30% | herbicidal activity against ERBVI found (ERBVI [7]; B.76 12.5 g/ha a.s.): 60% | herbicidal activity against AMARE found (AMARE; B.76 3.12 g/ha a.s.): 35% | herbicidal activity against AMBEL found (AMBEL [12]; B.76 6.25 g/ha a.s.): 75% | herbicidal activity against CHEAL found (CHEAL; B.76 3.12 g/ha a.s.): 30% | herbicidal activity against SORHA found (SORHA; B.76 6.25 g/ha a.s.): 0% | herbicidal activity against ELEIN found (ELEIN; B.76 6.25 g/ha a.s.): 30% | herbicidal activity against SORPHA found (SORPHA; B.76 12.5 g/ha a.s.): 25% | herbicidal activity against BIDPI found (BIDPI; B.76 6.25 g/ha a.s.): 60%

COC[C@H](C)N(C(=O)CCl)c1c(C)csc1C [B.106, dimethenamid-p, reference compound]
herbicidal activity against SETVI found (SETVI; B.106 15 g/ha a.s.): 70% | herbicidal activity against AMARE found (AMARE; B.106 15 g/ha a.s.): 75% | herbicidal activity against ECHCG found (ECHCG [10]; B.106 15 g/ha a.s.): 85% | herbicidal activity against CHEAL found (CHEAL; B.106 15 g/ha a.s.): 10%
